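Five concentrations, 48 hours, 96-well plates. GI50 is the concentration that inhibits growth by half. TGI denotes the concentration required for complete inhibition of growth.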
Key:
Assay in all cases: NCI anticancer screen, dose series, 48 h
786-0 renal = system: 786-0 renal
A498 renal = system: A498 renal
A549 NSCLC = system: A549 NSCLC
ACHN renal = system: ACHN renal
BT-549 breast = system: BT-549 breast
CAKI-1 renal = system: CAKI-1 renal
CCRF-CEM leukemia = system: CCRF-CEM leukemia
COLO 205 colon = system: COLO 205 colon
DU-145 prostate = system: DU-145 prostate
EKVX NSCLC = system: EKVX NSCLC
HCC-2998 colon = system: HCC-2998 colon
HCT-116 colon = system: HCT-116 colon
HCT-15 colon = system: HCT-15 colon
HL-60(TB) leukemia = system: HL-60(TB) leukemia
HOP-62 NSCLC = system: HOP-62 NSCLC
HOP-92 NSCLC = system: HOP-92 NSCLC
HS 578T breast = system: HS 578T breast
HT29 colon = system: HT29 colon
IGROV1 ovarian = system: IGROV1 ovarian
KM12 colon = system: KM12 colon
LOX IMVI melanoma = system: LOX IMVI melanoma
M14 melanoma = system: M14 melanoma
MALME-3M melanoma = system: MALME-3M melanoma
MCF7 breast = system: MCF7 breast
MDA-MB-231 breast = system: MDA-MB-231 breast
MOLT-4 leukemia = system: MOLT-4 leukemia
NCI-H226 lung = system: NCI-H226 lung
NCI-H23 lung = system: NCI-H23 lung
NCI-H460 lung = system: NCI-H460 lung
NCI-H522 lung = system: NCI-H522 lung
OVCAR-3 ovarian = system: OVCAR-3 ovarian
OVCAR-4 ovarian = system: OVCAR-4 ovarian
OVCAR-5 ovarian = system: OVCAR-5 ovarian
OVCAR-8 ovarian = system: OVCAR-8 ovarian
PC-3 prostate = system: PC-3 prostate
RPMI-8226 leukemia = system: RPMI-8226 leukemia
RXF 393 renal = system: RXF 393 renal
SF-268 CNS = system: SF-268 CNS
SF-539 CNS = system: SF-539 CNS
SK-MEL-2 melanoma = system: SK-MEL-2 melanoma
SK-MEL-28 melanoma = system: SK-MEL-28 melanoma
SK-MEL-5 melanoma = system: SK-MEL-5 melanoma
SK-OV-3 ovarian = system: SK-OV-3 ovarian
SN12C renal = system: SN12C renal
SNB-19 CNS = system: SNB-19 CNS
SNB-75 CNS = system: SNB-75 CNS
SR leukemia = system: SR leukemia
SW-620 colon = system: SW-620 colon
T-47D breast = system: T-47D breast
TK-10 renal = system: TK-10 renal
U251 CNS = system: U251 CNS
UACC-257 melanoma = system: UACC-257 melanoma
UACC-62 melanoma = system: UACC-62 melanoma
UO-31 renal = system: UO-31 renal

Q: Which results are given for O=C1Nc2ccccc2/C1=C\c1c(-c2ccccc2)nc2ccccn12?
A: GI50 (786-0 renal): 5.98 µM; TGI (786-0 renal): 81.5 µM; GI50 (A498 renal): 5.87 µM; TGI (A498 renal): > 100 µM; GI50 (A549 NSCLC): 3.9 µM; TGI (A549 NSCLC): 60 µM; GI50 (ACHN renal): 4.45 µM; TGI (ACHN renal): > 100 µM; GI50 (BT-549 breast): 3.97 µM; TGI (BT-549 breast): 50.9 µM; GI50 (CAKI-1 renal): 2700 nM; TGI (CAKI-1 renal): > 100 µM; GI50 (CCRF-CEM leukemia): 2570 nM; TGI (CCRF-CEM leukemia): > 100 µM; GI50 (COLO 205 colon): 2210 nM; TGI (COLO 205 colon): 5.58 µM; GI50 (DU-145 prostate): 4.46 µM; TGI (DU-145 prostate): > 100 µM; GI50 (EKVX NSCLC): 3.1 µM; TGI (EKVX NSCLC): > 100 µM; GI50 (HCC-2998 colon): 4.56 µM; TGI (HCC-2998 colon): 34.8 µM; GI50 (HCT-116 colon): 3.61 µM; TGI (HCT-116 colon): 47 µM; GI50 (HCT-15 colon): 3.6 µM; TGI (HCT-15 colon): > 100 µM; GI50 (HL-60(TB) leukemia): 2590 nM; TGI (HL-60(TB) leukemia): 6.47 µM; GI50 (HOP-62 NSCLC): 2700 nM; TGI (HOP-62 NSCLC): 15.5 µM; GI50 (HOP-92 NSCLC): 3.98 µM; TGI (HOP-92 NSCLC): 50.4 µM; GI50 (HS 578T breast): 9.31 µM; TGI (HS 578T breast): > 100 µM; GI50 (HT29 colon): 3.05 µM; TGI (HT29 colon): 13.9 µM; GI50 (IGROV1 ovarian): 2590 nM; TGI (IGROV1 ovarian): 20.2 µM; GI50 (KM12 colon): 2550 nM; TGI (KM12 colon): > 100 µM; GI50 (LOX IMVI melanoma): 4.34 µM; TGI (LOX IMVI melanoma): > 100 µM; GI50 (M14 melanoma): 2480 nM; TGI (M14 melanoma): 7.8 µM; GI50 (MALME-3M melanoma): 3.88 µM; TGI (MALME-3M melanoma): > 100 µM; GI50 (MCF7 breast): 3.52 µM; TGI (MCF7 breast): > 100 µM; GI50 (MDA-MB-231 breast): 7.29 µM; TGI (MDA-MB-231 breast): > 100 µM; GI50 (MOLT-4 leukemia): 4.2 µM; TGI (MOLT-4 leukemia): > 100 µM; GI50 (NCI-H226 lung): 4.5 µM; TGI (NCI-H226 lung): 57.8 µM; GI50 (NCI-H23 lung): 3.77 µM; TGI (NCI-H23 lung): > 100 µM; GI50 (NCI-H460 lung): 3.24 µM; TGI (NCI-H460 lung): 12.9 µM; GI50 (NCI-H522 lung): 1830 nM; TGI (NCI-H522 lung): 7.65 µM; GI50 (OVCAR-3 ovarian): 4.26 µM; TGI (OVCAR-3 ovarian): > 100 µM; GI50 (OVCAR-4 ovarian): 6.21 µM; TGI (OVCAR-4 ovarian): > 100 µM; GI50 (OVCAR-5 ovarian): 4.39 µM; TGI (OVCAR-5 ovarian): > 100 µM; GI50 (OVCAR-8 ovarian): 4.9 µM; TGI (OVCAR-8 ovarian): > 100 µM; GI50 (PC-3 prostate): 3.14 µM; TGI (PC-3 prostate): > 100 µM; GI50 (RPMI-8226 leukemia): 2670 nM; TGI (RPMI-8226 leukemia): 8.56 µM; GI50 (RXF 393 renal): 2750 nM; TGI (RXF 393 renal): 12.1 µM; GI50 (SF-268 CNS): 5.23 µM; TGI (SF-268 CNS): > 100 µM; GI50 (SF-539 CNS): 3.96 µM; TGI (SF-539 CNS): 18.9 µM; GI50 (SK-MEL-2 melanoma): 2350 nM; TGI (SK-MEL-2 melanoma): 6.97 µM; GI50 (SK-MEL-28 melanoma): 5.53 µM; TGI (SK-MEL-28 melanoma): > 100 µM; GI50 (SK-MEL-5 melanoma): 2830 nM; TGI (SK-MEL-5 melanoma): > 100 µM; GI50 (SK-OV-3 ovarian): 1950 nM; TGI (SK-OV-3 ovarian): 4.69 µM; GI50 (SN12C renal): 4.91 µM; TGI (SN12C renal): > 100 µM; GI50 (SNB-19 CNS): 4.93 µM; TGI (SNB-19 CNS): > 100 µM; GI50 (SNB-75 CNS): 1850 nM; TGI (SNB-75 CNS): 6.1 µM; GI50 (SR leukemia): 498 nM; TGI (SR leukemia): > 100 µM; GI50 (SW-620 colon): 3.02 µM; TGI (SW-620 colon): > 100 µM; GI50 (T-47D breast): 4.4 µM; TGI (T-47D breast): > 100 µM; GI50 (TK-10 renal): 5.05 µM; TGI (TK-10 renal): 37.1 µM; GI50 (U251 CNS): 3.97 µM; TGI (U251 CNS): 21 µM; GI50 (UACC-257 melanoma): 8.96 µM; TGI (UACC-257 melanoma): > 100 µM; GI50 (UACC-62 melanoma): 3.88 µM; TGI (UACC-62 melanoma): > 100 µM; GI50 (UO-31 renal): 1950 nM; TGI (UO-31 renal): > 100 µM

— PubChem BioAssay (NCI)
